In ChEMBL document CHEMBL1201862, “PubChem BioAssay data set” (2004):
Calls of active or inactive are those of the source.

Tests used:
[1] = target: FAD-linked sulfhydryl oxidase ALR (Homo sapiens, UniProt P55789); experiment: inhibitors of human ALR sulfhydryl oxidase, dose response, biochemical, H2O2 detection, luminescence, cherry-pick (AID 493248)
HEK293 = experiment: cells; format: functional, cell-based; conditions: Homo sapiens
[2] = target: T1, Nuclear receptor subfamily 0 group B member 1 (Homo sapiens, UniProt P51843); experiment: Luminescence-based cell-based high throughput dose response assay for inhibitors of the orphan nuclear receptor subfamily 0, group B, member 1 (DAX1; NR0B1). [Related pubchem assays (depositor defined):AID504766, AID504790]; format: functional
T1 sequence (P51843 whole entry): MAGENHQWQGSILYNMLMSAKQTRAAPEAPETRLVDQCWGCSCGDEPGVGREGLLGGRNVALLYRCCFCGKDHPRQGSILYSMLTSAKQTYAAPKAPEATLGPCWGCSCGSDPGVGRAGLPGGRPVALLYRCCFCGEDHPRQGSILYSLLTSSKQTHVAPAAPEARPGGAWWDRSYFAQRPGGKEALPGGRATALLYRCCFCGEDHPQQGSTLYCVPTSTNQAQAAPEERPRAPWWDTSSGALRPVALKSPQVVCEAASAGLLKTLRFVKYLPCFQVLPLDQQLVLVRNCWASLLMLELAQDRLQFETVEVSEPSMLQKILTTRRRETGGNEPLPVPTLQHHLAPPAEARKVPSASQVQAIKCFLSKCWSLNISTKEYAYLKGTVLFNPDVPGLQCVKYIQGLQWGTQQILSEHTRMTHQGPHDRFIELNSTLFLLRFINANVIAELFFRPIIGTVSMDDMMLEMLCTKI

Mu-type opioid receptor = Mu-type opioid receptor (Homo sapiens, UniProt P35372); experiment: (§1) Counterscreen for agonists of heterodimerization of the mu 1 (OPRM1) and delta 1 (OPRD1) opioid receptors: Luminescence-based cell-based high throughput dose response assay to identify agonists of OPRM1 homodimerization.; format: functional
[3] = target: Delta-type opioid receptor (Homo sapiens, UniProt P41143); experiment: as §1, with “of OPRD1” for “of OPRM1”, “homodimerization. [Related pubchem assays (depositor defined):AID504326, AID504355, AID504692, AID504904, AID504905]” for “homodimerization.”; format: functional
[4] = target: 5-hydroxytryptamine receptor 5A (Homo sapiens, UniProt P47898); experiment: Counterscreen for agonists of OPRM1-OPRD1 heterodimerization: luminescence-based cell-based high throughput dose response assay to identify agonists of 5-hydroxytryptamine (serotonin) 5A receptor (HTR5A). [Related pubchem assays (depositor defined):AID504326, AID504355, AID504692, AID504904, AID504905]; format: functional
[5] = target: T2, Serine/threonine-protein phosphatase (Candida dubliniensis (strain CD36 / CBS 7987 / NCPF 3949 / NRRLY-17841) (Yeast), UniProt B9W6M3); experiment: calcineurin pathway inhibitors in yeast reporter, dose response, S. cerevisiae, CDRE-lacZ, luminescence, secondary (AID 2388); format: functional, cell-based;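 note: yeast reporter cells carrying a calcineurin-responsive lacZ construct stimulated with calcium chloride; luminescent beta-galactosidase reporter signal in whole cells rather than isolated phosphatase activity; potency for inhibition where a drop in reporter signal means calcineurin blockade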
T2 sequence (B9W6M3 whole entry): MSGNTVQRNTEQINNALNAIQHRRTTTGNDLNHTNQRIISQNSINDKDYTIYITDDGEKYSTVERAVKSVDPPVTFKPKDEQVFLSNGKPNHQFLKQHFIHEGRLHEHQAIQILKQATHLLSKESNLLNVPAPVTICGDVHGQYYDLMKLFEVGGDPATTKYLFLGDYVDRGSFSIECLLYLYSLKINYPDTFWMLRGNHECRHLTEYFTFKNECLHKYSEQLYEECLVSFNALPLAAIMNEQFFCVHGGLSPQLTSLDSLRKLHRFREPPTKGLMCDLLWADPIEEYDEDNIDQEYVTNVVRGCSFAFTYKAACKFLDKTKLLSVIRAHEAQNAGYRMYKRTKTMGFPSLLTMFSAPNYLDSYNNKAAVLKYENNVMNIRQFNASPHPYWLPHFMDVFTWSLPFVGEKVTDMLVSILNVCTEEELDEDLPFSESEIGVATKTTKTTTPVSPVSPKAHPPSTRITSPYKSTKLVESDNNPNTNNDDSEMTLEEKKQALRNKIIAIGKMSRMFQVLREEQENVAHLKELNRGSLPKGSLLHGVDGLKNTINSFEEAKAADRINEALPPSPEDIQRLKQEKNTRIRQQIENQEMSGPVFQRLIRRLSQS

[6] = Vero E6 cell cytotoxicity, dose response, cytotoxicity control for non-replicating M. tuberculosis project, secondary assay (AID 492998); format: functional, VeroE6; conditions: Vero C1008
Streptokinase A = target: T3, Streptokinase A (Streptococcus pyogenes serotype M1, UniProt P10520); experiment: S. pyogenes streptokinase expression inhibitors, potency, dose response, plasminogen activation absorbance, OD405 (AID 1914); format: functional, Streptococcus pyogenes M1 GAS;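 note: secreted streptokinase activity via plasminogen activation per viability signal from cell pellet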
T3 sequence (P10520 whole entry): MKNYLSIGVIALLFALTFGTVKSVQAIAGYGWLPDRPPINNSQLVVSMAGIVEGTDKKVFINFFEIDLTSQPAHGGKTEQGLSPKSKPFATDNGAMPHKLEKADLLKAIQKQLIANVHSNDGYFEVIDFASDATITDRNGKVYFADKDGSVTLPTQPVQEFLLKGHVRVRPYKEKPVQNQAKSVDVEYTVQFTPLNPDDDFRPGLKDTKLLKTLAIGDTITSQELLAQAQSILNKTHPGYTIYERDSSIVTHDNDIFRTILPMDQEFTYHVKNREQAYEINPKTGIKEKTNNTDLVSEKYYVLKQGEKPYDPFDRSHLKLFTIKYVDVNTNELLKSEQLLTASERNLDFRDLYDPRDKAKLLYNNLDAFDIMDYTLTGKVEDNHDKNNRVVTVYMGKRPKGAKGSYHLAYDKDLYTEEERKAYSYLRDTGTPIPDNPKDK

cells = format: functional
[7] = target: ATP-dependent molecular chaperone HSP82 (Candida albicans (strain WO-1) (Yeast), UniProt C4YTQ8); experiment: loss of DOC-induced GRE-beta-galactosidase reporter signal, dose response, Hsp90 inhibitor project, S. cerevisiae, luminescence (AID 2400); format: functional, cell-based;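 note: beta-galactosidase luminescence from glucocorticoid response element reporter as proxy for Hsp90 function; inhibitor potency where signal loss means Hsp90 inhibition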
[8] = THP-1 cell cytotoxicity, dose response, cytotoxicity control for non-replicating M. tuberculosis project (AID 489025); format: functional
Streptococcus = experiment: Group A Streptococcus viability loss, dose response, counter-screen for streptokinase expression inhibitor project, luminescence, BacTiterGlo (AID 1915); format: functional, organism-based;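 note: potency for reduction of bacterial viability or growth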
[9] = NIH-3T3 fibroblast cytotoxicity, dose response, cytotoxicity control, cell-based, fluorescence, Alamar Blue, secondary assay (AID 2327); format: functional;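 note: NIH-3T3 mouse fibroblasts cultured with fluconazole at 8 µg/mL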
[10] = system: Streptococcus sp. 'group A'; experiment: growth inhibition of control SK(-) GAS strain, dose response, counter-screen for streptokinase expression inhibitor project, luminescence, kanamycin, BacTiterGlo, confirmation (AID 1900); format: functional, organism-based
[11] = C. albicans growth with fluconazole, confirmation, fluorescence, retest (AID 2467); format: functional, cell-based
[12] = target: T4, Corticotropin-releasing factor receptor 2/Corticotropin-releasing factor-binding protein (Homo sapiens, UniProt P24387+Q13324); experiment: Dose Response confirmation of uHTS hits for small molecule antagonists of the CRF-binding protein and CRF-R2 receptor complex.; format: functional; conditions: read-out: IC50_Mean
T4 sequence (Q13324 whole entry): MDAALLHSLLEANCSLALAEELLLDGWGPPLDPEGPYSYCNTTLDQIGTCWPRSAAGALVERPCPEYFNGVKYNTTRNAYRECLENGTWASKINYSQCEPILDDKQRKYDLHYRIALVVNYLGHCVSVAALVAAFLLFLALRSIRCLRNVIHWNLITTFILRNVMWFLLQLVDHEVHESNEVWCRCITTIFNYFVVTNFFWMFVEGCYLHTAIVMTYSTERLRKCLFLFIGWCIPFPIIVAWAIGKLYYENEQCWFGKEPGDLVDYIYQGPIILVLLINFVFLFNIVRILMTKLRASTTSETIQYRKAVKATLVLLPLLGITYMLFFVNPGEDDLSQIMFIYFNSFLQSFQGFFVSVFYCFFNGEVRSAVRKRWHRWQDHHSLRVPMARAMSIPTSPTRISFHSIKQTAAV
T4 sequence (P24387 whole entry): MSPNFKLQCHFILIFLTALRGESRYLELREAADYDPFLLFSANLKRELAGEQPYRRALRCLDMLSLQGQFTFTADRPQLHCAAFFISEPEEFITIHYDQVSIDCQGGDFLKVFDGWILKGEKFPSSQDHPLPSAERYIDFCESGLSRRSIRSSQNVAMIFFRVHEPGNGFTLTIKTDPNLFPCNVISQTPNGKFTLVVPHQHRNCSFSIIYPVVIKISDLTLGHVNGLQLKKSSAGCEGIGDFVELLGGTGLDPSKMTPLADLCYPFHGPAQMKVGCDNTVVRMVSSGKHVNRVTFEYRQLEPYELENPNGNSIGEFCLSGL

[13] = target: T4, Corticotropin-releasing factor receptor 2/Corticotropin-releasing factor-binding protein; experiment: activators of CRF receptor 2 with binding protein – uHTS hits, confirmation (AID 602473); format: functional; conditions: read-out: EC50_Mean
[14] = inhibitors of PGC1a acetylation in cells, dose response, cell-based, cherry-picked samples (AID 720514); format: functional;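 note: potency may reflect raised or lowered acetylation signal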
[15] = microbe, parasite or virus in culture; format: functional; conditions: Mycobacterium tuberculosis
[16] = cytotoxicity in MIN6 insulinoma cells, dose response, cytotoxicity control, cell-based, mouse insulinoma (AID 2122); format: functional;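 note: confirmatory high-throughput counterscreen run to flag cytotoxic compounds; mouse MIN-6 beta cells carrying an insulin promoter eGFP reporter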
[17] = growth suppression of PTEN-null colon cells, dose response, cell-based, HCT116 PTEN knockout (AID 1047); format: functional;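 note: HCT116 colon tumor cells with PTEN knocked out; cells exposed to compound for 60 hours before readout; potency for loss of cell viability measured by luminescence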
[18] = growth suppression of beta-catenin-knockout colon cells, dose response, cell-based, HCT116, human colon tumor (AID 1045); format: functional;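 note: HCT116 colon tumor cells with beta catenin knocked out; cells exposed to compound for 60 hours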
[19] = target: T5, Microphthalmia-associated transcription factor (Homo sapiens, UniProt O75030); experiment: TRPM1 promoter luciferase signal decrease, dose response, MITF inhibitor project, cell-based, SK-MEL-5, cherry-picked, set 3 (AID 493073); format: functional
T5 sequence (O75030 whole entry): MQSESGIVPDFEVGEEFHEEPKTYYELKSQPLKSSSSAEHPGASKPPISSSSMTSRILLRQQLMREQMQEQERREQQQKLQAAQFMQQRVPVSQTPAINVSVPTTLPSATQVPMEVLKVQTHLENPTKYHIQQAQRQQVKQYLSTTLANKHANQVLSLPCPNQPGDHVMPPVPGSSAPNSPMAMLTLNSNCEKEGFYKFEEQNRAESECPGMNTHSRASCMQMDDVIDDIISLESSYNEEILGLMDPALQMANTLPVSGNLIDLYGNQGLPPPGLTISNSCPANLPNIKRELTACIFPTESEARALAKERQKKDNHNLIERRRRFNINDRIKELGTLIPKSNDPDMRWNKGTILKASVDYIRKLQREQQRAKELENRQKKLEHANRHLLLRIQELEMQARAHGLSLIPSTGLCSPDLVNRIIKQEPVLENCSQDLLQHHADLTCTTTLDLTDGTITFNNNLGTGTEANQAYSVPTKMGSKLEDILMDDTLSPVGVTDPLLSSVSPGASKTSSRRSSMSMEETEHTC

[20] = insulin promoter down-regulators in MIN6 cells, imaging, high-content screening, mouse beta cells (AID 1628); format: functional
A-375 = experiment: MITF: Counter assay: A375 proliferation Measured in Cell-Based System Using Plate Reader - 2084-03_Inhibitor_Dose_DryPowder_Activity. [Related pubchem assays (depositor defined):AID488944]; format: functional; conditions: Homo sapiens
[21] = Vero cell cytotoxicity, dose response, cytotoxicity control for Vif-APOBEC3G degradation inhibitor project, Vero cells (AID 1117358); format: functional; conditions: Human immunodeficiency virus 1, Vero
Genome polyprotein = Genome polyprotein (dengue virus type 2, UniProt P29990); experiment: Dengue-2 NS5 methyltransferase inhibitors, primary screen, biochemical, confirmation dose response (AID 588689); format: functional
Genome polyprotein, sequence (P29990 2492-3391 limits assumed): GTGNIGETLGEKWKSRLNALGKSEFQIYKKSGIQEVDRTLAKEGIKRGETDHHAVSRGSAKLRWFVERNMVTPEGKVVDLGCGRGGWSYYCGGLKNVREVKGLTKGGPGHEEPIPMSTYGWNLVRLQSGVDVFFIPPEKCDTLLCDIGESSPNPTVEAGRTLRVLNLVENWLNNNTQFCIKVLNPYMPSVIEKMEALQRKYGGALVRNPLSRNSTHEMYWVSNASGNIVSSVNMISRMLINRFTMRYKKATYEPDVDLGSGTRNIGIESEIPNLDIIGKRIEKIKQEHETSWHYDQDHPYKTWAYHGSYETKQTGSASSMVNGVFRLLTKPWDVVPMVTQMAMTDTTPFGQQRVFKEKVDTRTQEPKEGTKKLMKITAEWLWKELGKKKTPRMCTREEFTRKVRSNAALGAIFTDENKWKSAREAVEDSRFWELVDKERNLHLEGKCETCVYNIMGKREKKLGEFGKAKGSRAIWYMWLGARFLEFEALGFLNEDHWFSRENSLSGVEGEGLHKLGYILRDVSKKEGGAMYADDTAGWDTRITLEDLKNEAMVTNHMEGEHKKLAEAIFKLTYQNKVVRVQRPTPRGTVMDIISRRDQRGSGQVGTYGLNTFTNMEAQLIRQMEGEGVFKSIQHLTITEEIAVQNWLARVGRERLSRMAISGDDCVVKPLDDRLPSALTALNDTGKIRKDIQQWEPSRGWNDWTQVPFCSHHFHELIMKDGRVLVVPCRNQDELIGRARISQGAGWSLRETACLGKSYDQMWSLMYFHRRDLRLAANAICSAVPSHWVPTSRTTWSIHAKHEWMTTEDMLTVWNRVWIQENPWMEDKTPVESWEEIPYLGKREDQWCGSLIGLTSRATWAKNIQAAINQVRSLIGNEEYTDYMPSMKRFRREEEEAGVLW

ATP-dependent molecular chaperone HSP82, sequence (C4YTQ8 whole entry): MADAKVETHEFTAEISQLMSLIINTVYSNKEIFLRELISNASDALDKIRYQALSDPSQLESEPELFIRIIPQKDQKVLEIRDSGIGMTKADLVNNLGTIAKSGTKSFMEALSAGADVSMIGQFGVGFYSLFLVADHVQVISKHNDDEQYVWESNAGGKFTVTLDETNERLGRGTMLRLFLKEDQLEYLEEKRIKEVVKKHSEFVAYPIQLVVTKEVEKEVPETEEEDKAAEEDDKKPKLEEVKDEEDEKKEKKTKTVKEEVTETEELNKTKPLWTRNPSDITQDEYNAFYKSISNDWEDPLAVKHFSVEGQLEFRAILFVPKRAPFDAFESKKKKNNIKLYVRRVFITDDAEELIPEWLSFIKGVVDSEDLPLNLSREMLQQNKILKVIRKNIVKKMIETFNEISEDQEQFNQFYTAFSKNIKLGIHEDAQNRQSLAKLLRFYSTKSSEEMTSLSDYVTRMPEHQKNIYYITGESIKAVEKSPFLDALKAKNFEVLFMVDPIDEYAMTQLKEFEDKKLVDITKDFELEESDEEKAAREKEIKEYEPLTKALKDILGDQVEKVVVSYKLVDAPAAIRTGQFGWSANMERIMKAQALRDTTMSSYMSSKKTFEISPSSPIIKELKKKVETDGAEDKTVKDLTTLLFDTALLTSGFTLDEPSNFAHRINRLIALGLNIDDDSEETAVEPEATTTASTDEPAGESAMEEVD
5-hydroxytryptamine receptor 5A, sequence (P47898 whole entry): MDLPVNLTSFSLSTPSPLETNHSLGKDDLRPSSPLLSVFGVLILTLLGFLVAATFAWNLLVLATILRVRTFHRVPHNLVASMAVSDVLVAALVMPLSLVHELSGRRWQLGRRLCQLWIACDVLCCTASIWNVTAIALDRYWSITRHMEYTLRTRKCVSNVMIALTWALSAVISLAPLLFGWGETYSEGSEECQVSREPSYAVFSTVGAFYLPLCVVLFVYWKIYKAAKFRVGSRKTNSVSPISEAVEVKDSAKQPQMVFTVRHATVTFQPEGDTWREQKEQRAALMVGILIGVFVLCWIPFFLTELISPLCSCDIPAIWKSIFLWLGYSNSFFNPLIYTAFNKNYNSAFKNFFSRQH
Delta-type opioid receptor, sequence (P41143 whole entry): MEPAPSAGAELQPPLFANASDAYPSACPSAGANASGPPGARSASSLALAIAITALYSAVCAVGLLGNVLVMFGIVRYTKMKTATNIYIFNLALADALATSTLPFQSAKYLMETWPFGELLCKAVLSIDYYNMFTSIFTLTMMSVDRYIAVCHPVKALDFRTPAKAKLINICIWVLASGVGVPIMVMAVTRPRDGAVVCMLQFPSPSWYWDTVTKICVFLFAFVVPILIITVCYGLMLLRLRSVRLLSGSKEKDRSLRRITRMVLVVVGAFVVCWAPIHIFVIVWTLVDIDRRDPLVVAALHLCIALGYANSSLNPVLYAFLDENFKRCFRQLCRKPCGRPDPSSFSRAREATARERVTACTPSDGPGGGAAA
FAD-linked sulfhydryl oxidase ALR, sequence (P55789 whole entry): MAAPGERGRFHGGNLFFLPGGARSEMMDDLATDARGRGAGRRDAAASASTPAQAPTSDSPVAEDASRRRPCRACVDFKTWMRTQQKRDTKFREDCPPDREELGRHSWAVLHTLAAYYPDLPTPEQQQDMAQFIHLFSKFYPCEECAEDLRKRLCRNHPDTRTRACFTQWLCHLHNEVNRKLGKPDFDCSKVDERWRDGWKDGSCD
Mu-type opioid receptor, sequence (P35372 whole entry): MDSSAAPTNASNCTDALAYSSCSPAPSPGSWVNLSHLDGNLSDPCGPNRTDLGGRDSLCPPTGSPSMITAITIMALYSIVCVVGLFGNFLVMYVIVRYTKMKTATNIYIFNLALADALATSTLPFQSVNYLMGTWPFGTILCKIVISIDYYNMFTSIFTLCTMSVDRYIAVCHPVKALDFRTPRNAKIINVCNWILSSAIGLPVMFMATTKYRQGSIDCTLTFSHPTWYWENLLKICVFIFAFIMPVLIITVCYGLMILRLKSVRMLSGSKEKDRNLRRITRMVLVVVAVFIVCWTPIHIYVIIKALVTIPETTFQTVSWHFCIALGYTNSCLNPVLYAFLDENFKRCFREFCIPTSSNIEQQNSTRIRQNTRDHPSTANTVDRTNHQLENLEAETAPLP

In the case of `COc1ccc(Nc2[nH]nc(N)c2C(N)=O)cc1`, the AC50 [1] is reported as 2.71 µM (active), the IC50 (HEK293) is reported as > 67.5 µM (inactive) and the IC50 [2] is reported as > 67.5 µM (inactive).
In the case of `C/C(CC(=O)Nc1ccc(Cl)cc1C(F)(F)F)=N\NC(=O)c1cccs1`, the IC50 (HEK293) is reported as > 67.6 µM (inactive) and the IC50 [2] is reported as > 67.6 µM (inactive).
In the case of `OCC1(CCc2ccccc2)CCN(Cc2cc(F)ccc2-n2cccn2)CC1`, the EC50 (Mu-type opioid receptor) is reported as > 92.5 µM (inactive), the EC50 [3] is reported as > 92.5 µM (inactive) and the EC50 [4] is reported as > 92.5 µM (inactive).
In the case of `CCCn1nnnc1NC(=O)c1ccc2ccccc2c1`, the EC50 [5] is reported as > 180 µM (inactive), the CC50 [6] is reported as > 20 µM (active) and the EC50 (Streptokinase A) is reported as > 150 µM (not active). For the same molecule, the IC50 (cells) was 0.9 µM (active), the EC50 [7] was 82.2 µM (active) and the CC50 [8] was 39.5 µM (active). For the same molecule, the EC50 (Streptococcus) was > 150 µM (not active), the EC50 [9] was 121 µM (active) and the EC50 [10] was 1.59 µM (active). The EC50 [11] was 0.505 µM (active).
With `Cc1nc(-c2ccncc2)nc(NCCNc2ccc(C(F)(F)F)cn2)c1Cl` the IC50 [12] was > 47.1 µM (inactive), the IC50 (HEK293) was > 67.5 µM (inactive) and the IC50 [2] was > 67.5 µM (inactive). The EC50 [13] was > 53 µM (inactive).
With `COc1ccc(-c2cc(-c3ccccc3)c(C#N)c([S+](C)[O-])n2)cc1` (stereo unspecified) the AC50 [14] was 4.89 µM (active), the CC50 [15] was 23 µM (active) and the IC50 [16] was 2.76 µM (active). For the same molecule, the EC50 [17] was 3.33 µM (active), the EC50 [18] was 2.12 µM (active) and the AC50 [19] was 11.8 µM (active). For the same molecule, the IC50 [20] was 2.05 µM (active), the AC50 (A-375) was 20.2 µM (active) and the CC50 [21] was 31.4 µM (active).
For `COc1ccccc1/C=C1\SC(=S)N(NS(=O)(=O)c2ccccc2)C1=O`, the EC50 [5] was > 180 µM (inactive), the IC50 (Genome polyprotein) was 36.2 µM (active) and the EC50 [7] was 18.2 µM (active). For the same molecule, the EC50 [9] was > 150 µM (inconclusive) and the EC50 [11] was 0.94 µM (active).
